Here are results for 32 compounds from patent publication US7462625B2, “Gonadotropin-releasing hormone receptor antagonists and methods relating thereto” (Neurocrine Biosciences, Inc., priority 2000, dated 2008).

Where a name gives a salt, the structure may show the parent alone. Some results are limits rather than exact numbers.

For the assay, the target named is T1, GnRH receptor (Homo sapiens, UniProt P30968).
T1 construct: expressed in transfected cells
T1 sequence (P30968 1-328): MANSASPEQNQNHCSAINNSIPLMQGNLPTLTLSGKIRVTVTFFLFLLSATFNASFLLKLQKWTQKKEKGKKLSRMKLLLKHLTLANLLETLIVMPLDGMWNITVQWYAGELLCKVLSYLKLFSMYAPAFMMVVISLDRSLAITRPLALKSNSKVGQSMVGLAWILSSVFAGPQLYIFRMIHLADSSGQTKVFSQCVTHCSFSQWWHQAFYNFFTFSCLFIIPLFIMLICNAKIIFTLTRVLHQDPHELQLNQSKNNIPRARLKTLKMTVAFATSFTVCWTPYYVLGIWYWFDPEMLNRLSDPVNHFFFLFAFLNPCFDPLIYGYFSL
The assay can be described thus: GnRH receptor membrane binding assay. Conditions: GnRH receptor membrane binding assay, [125I]-labeled GnRH peptide; read-out: Ki. Here is the method:
Radio-Iodination of GnRH Peptide
The GnRH analog is labeled by the chloramine-T method. […] The reaction is stopped by the addition of 60 μg sodium metabisulfite and the free iodine is removed by passing the iodinated mixture through a C-8 Sep-Pak cartridge (Millipore Corp., Milford, Mass.). The peptide is eluted with a small volume of 80% acetonitrile/water. […] The purified radioactive peptide is stored in 0.1% BSA/20% acetonitrile/0.1% TFA at −80° C. and can be used for up to 4 weeks.
GnRH Receptor Membrane Binding Assay
Cells stably, or transiently, transfected with GnRH receptor expression vectors are harvested, resuspended in 5% sucrose and homogenized using a polytron homogenizer (2×15 sec). Nucleii are removed by centrifugation (3000×g for 5 min.), and the supernatant centrifuged (20,000×g for 30 min, 4° C.) to collect the membrane fraction. The final membrane preparation is resuspended in binding buffer (10 mM Hepes (pH 7.5), 150 mM NaCl, and 0.1% BSA) and stored at −70° C. Binding reactions are performed in a Millipore MultiScreen 96-well filtration plate assembly with polyethylenimine coated GF/C membranes. […] The reaction is terminated after 90 minutes by application of vacuum and washing (2×) with phosphate buffered saline. Bound radioactivity is measured using 96-well scintillation counting (Packard Topcount) or by removing the filters from the plate and direct gamma counting. Ki values are calculated from competition binding data using non-linear least squares regression using the Prism software package (GraphPad Software).
By Ki is commonly meant a dissociation constant, usually derived from enzyme kinetics or from competition with a known ligand. `COc1cccc(-c2c(C)n(Cc3c(F)cccc3F)c(=O)n(C[C@@H](C)NC(C)C(C)C)c2=O)c1F` (some centres unmarked) [9-613]: the Ki was under 100 nM. `COc1cccc(-c2c(C)n(Cc3c(F)cccc3F)c(=O)n(CC(C)NCc3cccn3C)c2=O)c1F` (centres unmarked) [9-618]: the Ki is under 100 nM. Then `COc1cccc(-c2c(C)n(Cc3c(F)cccc3F)c(=O)n(CC(C)NCc3cccs3)c2=O)c1F` (centres unmarked) [9-621], with under 100 nM; and `COc1cccc(-c2c(C)n(Cc3c(F)cccc3F)c(=O)n(CC(C)NCc3cc(Br)cs3)c2=O)c1F` (centres unmarked) [9-622], with under 100 nM; and `COc1ccccc1CNC[C@@H](C)n1c(=O)c(-c2cccc(C)c2F)c(C)n(Cc2c(F)cccc2F)c1=O` [9-634], with under 100 nM. The result for `CCOc1ccccc1CNC[C@@H](C)n1c(=O)c(-c2cccc(C)c2F)c(C)n(Cc2c(F)cccc2F)c1=O` [9-636] reads under 100 nM; that for `COc1cccc(-c2c(C)n(Cc3c(F)cccc3F)c(=O)n(C[C@@H](C)NCc3ccco3)c2=O)c1F` [9-652], under 100 nM. The result for `COc1cccc(-c2c(C)n(Cc3c(F)cccc3F)c(=O)n([C@H](C)CNCc3ccccc3C)c2=O)c1F` [9-653] reads under 100 nM. On to `COc1cccc(-c2c(C)n(Cc3c(F)cccc3F)c(=O)n(C[C@H](C)NCc3cccn3C)c2=O)c1F` [9-664], for which the Ki is under 100 nM.

Turning to `CCc1ccc(CN[C@@H](C)Cn2c(=O)c(-c3cccc(OC)c3F)c(C)n(Cc3c(F)cccc3F)c2=O)o1` [9-665], the Ki was under 100 nM. As to `COc1cccc(-c2c(C)n(Cc3c(F)cccc3F)c(=O)n(C[C@H](C)NCc3ccc(Cl)s3)c2=O)c1F` [9-677], the Ki is under 100 nM.

Turning to `CCC(C)C(C)CN[C@@H](C)Cn1c(=O)c(-c2cccc(OC)c2F)c(C)n(Cc2c(F)cccc2F)c1=O` (some centres unmarked) [9-678], the Ki was under 100 nM.

As to `COc1cccc(-c2c(C)n(Cc3c(F)cccc3F)c(=O)n(C[C@H](C)NCc3ccc(O)cc3)c2=O)c1F` [9-680], the Ki was under 100 nM. `CCCN(CCC)[C@@H](C)Cn1c(=O)c(-c2cccc(OC)c2F)c(C)n(Cc2c(F)cccc2F)c1=O` [9-681]: the Ki was under 100 nM. The result for `CCC(CC(C)C)N[C@@H](C)Cn1c(=O)c(-c2cccc(OC)c2F)c(C)n(Cc2c(F)cccc2F)c1=O` (some centres unmarked) [9-688] reads under 100 nM; that for `COc1cccc(-c2c(C)n(Cc3c(F)cccc3F)c(=O)n(C[C@H](CC(C)C)N(C)C)c2=O)c1F` [9-704], under 100 nM; that for `COc1cccc(-c2c(C)n(Cc3c(F)cccc3F)c(=O)n(C[C@@H](C(C)C)N(C)C)c2=O)c1F` [9-711], under 100 nM.

`COc1cccc(-c2c(C)n(Cc3c(F)cccc3F)c(=O)n(C[C@@H](NC(C)C)C(C)C)c2=O)c1F` [9-712]: the Ki is under 100 nM. Then `CCN[C@H](Cn1c(=O)c(-c2cccc(OC)c2F)c(C)n(Cc2c(F)cccc2F)c1=O)C(C)C` [9-714], with under 100 nM; and `Cc1c(-c2ccc3c(c2)OCO3)c(=O)n(C[C@H](CO)N(CC2CC2)CC2CC2)c(=O)n1Cc1c(F)cccc1F` [9-745], with under 100 nM; and `COc1cccc(-c2c(C)n(Cc3c(F)cccc3F)c(=O)n(CC[C@@H](N)c3ccccc3)c2=O)c1` [9-774], with under 100 nM.

For `Cc1c(-c2ccccc2F)c(=O)n(C[C@H](N)c2ccccc2)c(=O)n1Cc1c(F)cccc1F` [10-1, 6-Methyl-5-(2-fluorophenyl)-3-[2(R)-amino-2-phenylethyl]-1-(2,6-difluorobenzyl)uracil trifluoroacetic acid salt], the Ki is under 100 nM.

`Cc1nc(-c2c(C)n(Cc3c(F)cccc3F)c(=O)n(C[C@H](N)c3ccccc3)c2=O)cs1` [12-1]: the Ki is under 100 nM. The result for `Cc1c(-c2csc(-c3ccccc3)n2)c(=O)n(C[C@H](N)c2ccccc2)c(=O)n1Cc1c(F)cccc1F` [12-4] reads under 100 nM. Then `Cc1c(-c2csc(Cc3ccccc3)n2)c(=O)n(C[C@H](N)c2ccccc2)c(=O)n1Cc1c(F)cccc1F` [12-5], with under 100 nM; and `COc1ccc(Nc2nc(-c3c(C)n(Cc4c(F)cccc4F)c(=O)n(C[C@H](N)c4ccccc4)c3=O)cs2)cc1` [12-10], with under 100 nM. Then `Cc1c(-c2csc(-c3ccc(F)cc3)n2)c(=O)n(C[C@H](N)c2ccccc2)c(=O)n1Cc1c(F)cccc1F` [12-24], with under 100 nM; and `COc1ccc(Nc2nc(-c3c(C)n(Cc4c(F)cccc4F)c(=O)n(C[C@H](N)c4ccccc4)c3=O)cs2)cc1OC` [12-27], with under 100 nM.

Consider `Cc1ccc(Nc2nc(-c3c(C)n(Cc4c(F)cccc4F)c(=O)n(C[C@H](N)c4ccccc4)c3=O)cs2)cc1` [12-32], for which the Ki was under 100 nM.

Regarding `CN[C@H](CC(C)C)Cn1c(=O)c(-c2cccc(OC)c2F)cn(Cc2c(F)cccc2F)c1=O` [13-4], the Ki was under 100 nM. Then `CCc1c(-c2cccc(OC)c2F)c(=O)n(C[C@H](N)c2ccccc2)c(=O)n1Cc1c(F)cccc1F` [15-1], with under 100 nM; and `CCc1c(-c2cccc(OC)c2)c(=O)n(C[C@H](N)c2ccccc2)c(=O)n1Cc1c(F)cccc1F` [15-2], with under 100 nM.
